Measured values reported in patent US8524899B2, “Alternative heterocycles for DNA recognition” (California Institute of Technology, priority 2003, dated 2013).
One block for each molecule: values may come before it.

How the values were obtained:
Assay type in all cases: binding
[1] = tested on: 32P-3′-labeled EcoRI/PvuII restriction fragment of plasmid pDR1 (sites 5′-TGTCTA-3′, 5′-TGTTTA-3′, 5′-TGTATA-3′, 5′-TGTGTA-3′); assay: Quantitative DNase I footprint titration on pDR1 restriction fragment
Protocol: FIG. 4 illustrates the equilibrium association constants Ka[M^−1] for Polyamide Oligomers A-C, N, Q, and P. The reported association constants are the average values obtained from three DNase I footprint titration experiments, with the standard deviation for each data set indicated in the experiments. Assays were carried out at 22° C. at pH 7.0 in the presence of 10 mM Tris-HCl, 10 mM KCl, 10 mM MgCl2, and 5 mM CaCl2 with an equilibration time of 12 h. Specificities are give in brackets under the Ka values and calculated as Ka (match)/Ka (mismatch).
To examine whether an imidazo[4,5-b]pyridine unit Ip can replace a five-membered imidazole ring Im within an eight-ring hairpin polyamide regarding DNA binding affinity and specificity, polyamide oligomer A and its related all five-membered ring hairpin oligomer N were evaluated by DNase I footprint titrations under identical conditions. Quantitative DNase I footprint titration experiments (10 mM Tris-HCl, 10 mM KCl, 10 mM MgCl2, 5 mM CaCl2, pH 7.0, 22° C., equilibration time: 12 h) were performed on a ^32P-3′-labeled EcoRI/PvuII restriction fragment of plasmid pDR1 0 (FIG. 2). This DNA fragment contains four 6-base pair binding sites which differ at one position, 5′-TGTCTA-3′,5′-TGTTTA-3′,5′-TGTATA-3′, and 5′-TGTGTA-3′. The latter one was regarded as the possible match site having a G•C base pair under the Ip/Py or Im/Py pair, respectively.
Construction of plasmid DNA. The plasmid pDR1 was constructed by hybridization of the two oligonucleotides 5′-GATCAGGCTGTC-[…]-GCTGCTGTTTATGGACG-GCTGCTGTATATGGACGG-CTGGGCGA-3′ (SEQ ID NO:1) and 5′-AGCTTCGC-[…]-[…]-3′ (SEQ ID NO:2) followed by ligation into the BamHI/HinDIII restriction fragment of pUC19 using T4 DNA ligase. The resultant plasmid was then used to transform E. coli XL-1 Blue Supercompetent cells. Ampicillin-resistant white colonies were selected from 25 mL Luria-Bertani agar plates containing […] ampicillin, treated with XGAL and IPTG solutions and grown overnight at 37° C. Cells were harvested after overnight growth at 37° C. Large-scale plasmid purification was performed with Qiagen, purification kits. The presence of the desired insert was determined by dideoxy sequencing. DNA concentrations were determined at 260 nm using the relationship 1 OD unit) 50 μg/mL duplex DNA.
Preparation of 3′-End-Labeled DNA Restriction Fragments. The plasmid pDR1 was linearized with EcoRI and PVuII and treated with the Klenow fragment of DNA […], [R-^32P]-dATP, and [R-^32P]-TTP for 3′-end labeling. The labeled 3′-fragment was purified on a 7% nondenaturing polyacrylamide gel (5% cross-linkage) and the desired 284 base pair band isolated after visualization by autoradiography. The DNA was precipitated with 2-propanol, the pellet washed, lyophilized, and resuspended in RNase-free H2O. Chemical sequencing reactions were performed according to published protocols. (Troschütz, R.; Lückel, A. Arch. Pharm., 325, 617-619, 1992.)
DNase I Footprinting. All reactions were carried out in a volume of 400 μL according to published procedures. Quantitation by storage phosphor autoradiography and determination of equilibrium association constants were as previously described. (Trauger, J. W.; Dervan, P. B. Methods Enzymol., 340, 450-466, 2001.)

[2] = tested on: EcoRI/PvuII restriction fragment of plasmid pPWF2 (5′-TGRACA-3′); assay: Quantitative DNase I footprint titration, R•S position, plasmid pPWF2
From the text: (§1) FIG. 9 illustrates the equilibrium association constants Ka[M^−1] and specificities for polyamide oligomers D-F, R, S, and V on plasmids pPWF2 and pCAB1 (R•S position).
(§2) When replacing PyPy, PyIm, and PyHp dimers with BiPy (as in oligomer D), BiIm (as in oligomer E), and BiHp constructs (as in oligomer F), respectively, the question arises whether a) the benzimidazole ring is capable of cooperating with the imidazole ring on the opposite strand of the hairpin polyamide to specifically recognize a C•G base pair according to the binding model and the general pairing rules, and b) whether the steric and electronic peculiarities of the benzimidazole ring disturb the binding ability of the adjacent heterocycle. In order to address this question for the given polyamide design, the recognition behavior of the benzimidazole-containing polyamides was probed in two of the six base pair positions R•S and X•Y of the recognition sequence (5′-TGRACA-3′ and 5′-TGGXCA-3′ for oligomers D and F; 5′-TGRCAA-3′ and 5′-TGGXAA-3′ for oligomer E; FIG. 6) and compared with the DNA-binding ability of the related all five-membered oligomers R, S, and V at the same recognition sequences.
(§3) Evaluation of the DNA recognition properties of the new ligands oligomers D, E, and F at the imidazole/benzimidazole position (referred to as R•S position) should reveal the sequence preference of the benzimidazole ring. The binding properties at the neighboring ring position (referred to as X•Y position) were expected to disclose whether the recognition capabilities of the adjacent internal five-membered ring are disturbed by the benzimidazole moiety. To examine the consequences of the ring replacement for DNA binding in terms of affinity and specificity, the benzimidazole-containing hairpin polyamides oligomers D, E, and F were evaluated by quantitative DNase I footprint titrations and the results compared to those from related oligomers R, S, and V, which were investigated under identical conditions. Quantitative DNase I footprint titration experiments (10 mm Tris-HCl, 10 mm KCl, 10 mm MgCl2, 5 mm CaCl2, pH 7.0, 22° C., equilibration time: 12 h) were performed on ^32P-3′-labeled EcoRI/PvuII restriction fragments of plasmids pPWF2 and pCAB1 (to probe the R•S position, FIG. 7); and pAU2 and pCAB2 (to probe the X•Y position, FIG. 8). Equilibrium association constants (Ka) for the polyamide oligomers at the binding sites of interest were determined as described above in Example 3.

[3] = tested on: EcoRI/PvuII restriction fragment of plasmid pAU2 (5′-TGGXCA-3′); assay: Quantitative DNase I footprint titration, X•Y position, plasmid pAU2; details: match and mismatch sites
From the text: FIG. 10 illustrates the equilibrium association constants Ka[M^−1] and specificities for polyamide oligomers D-F, R, S, and V on plasmids pAU2 and pCAB2 (X•Y position). […]
as §3, with “The binding properties at the neighboring ring position (referred to as X•Y position) were expected to disclose whether the recognition capabilities of the adjacent internal five-membered ring are disturbed by the benzimidazole moiety.” left out

[4] = tested on: EcoRI/PvuII restriction fragment of plasmid pCAB1 (5′-TGRCAA-3′); assay: Quantitative DNase I footprint titration, R•S position, plasmid pCAB1
From the text: as §1, §2, §3

[5] = tested on: EcoRI/PvuII restriction fragment of plasmid pCAB2 (5′-TGGXAA-3′); assay: Quantitative DNase I footprint titration, X•Y position, plasmid pCAB2
From the text: FIG. 10 illustrates the equilibrium association constants Ka[M^−1] and specificities for polyamide oligomers D-F, R, S, and V on plasmids pAU2 and pCAB2 (X•Y position).
When replacing PyPy, PyIm, and PyHp dimers with BiPy (as in oligomer D), BiIm (as in oligomer E), and BiHp constructs (as in oligomer F), respectively, the question arises whether a) the benzimidazole ring is capable of cooperating with the imidazole ring on the opposite strand of the hairpin polyamide to specifically recognize a C•G base pair according to the binding model and the general pairing rules, and b) whether the steric and electronic peculiarities of the benzimidazole ring disturb the binding ability of the adjacent heterocycle. […]
as §3, with “The binding properties at the neighboring ring position (referred to as X•Y position) were expected to disclose whether the recognition capabilities of the adjacent internal five-membered ring are disturbed by the benzimidazole moiety.” left out

[6] = tested on: 5′-TGGXCA-3′ (X=A, T, G, C); assay: DNase I footprint titration, single Hz/Py, Py/Hz, Hz/Bi, Bi/Hz pair position; details: for preference for T•A over A•T: Hz/Py (G), Hz/Bi (I) pair; for preference for A•T over T•A: Py/Hz (J), Bi/Hz (L) pair
Protocol: FIG. 15 is a table showing the association equilibrium constant Ka[M^−1] for polyamide oligomers G and J. The reported association constants are the average values obtained from three DNase I footprint titration experiments, with the standard deviation given in parenthesis. Assays were carried out at 22° C. at pH 7.0 in the presence of 10 mM Tris-HCl, 10 mM KCl, 10 mM MgCl2, and 5 mM CaCl2 at pH 7.0.
FIG. 19 is a a table showing the association equilibrium constant Ka[M^−1] for polyamide oligomers I and L. The reported association constants are the average values obtained from three DNase I footprint titration experiments, with the standard deviation given in parenthesis. Assays were carried out at 22° C. at pH 7.0 in the presence of 10 mM Tris-HCl, 10 mM KCl, 10 mM MgCl2, and 5 mM CaCl2 at pH 7.0.
For polyamides Im-Im-Hz-Py-γ-Im-Py-Py-Py-β-Dp (oligomer G) and Im-Im-Py-Py-γ-Im-Hz-Py-Py-β-Dp (oligomer J), the DNA-sequence specificity at a single ring-pairing position (bolded in the sequences listed above) was determined by varying a single DNA base pair within the parent-sequence context, 5′-TGGXCA-3′, to all four Watson-Crick base pairs (X=A, T, G, C) and comparing the relative affinities of the resulting complexes (FIG. 14). The variable base-pair position was installed opposite the novel Hz/Py and Py/Hz pairs, designed to target T•A and A•T respectively. Equilibrium association constants (Ka) for polyamide oligomers containing Py/Py, Hp/Py and Py/Hp pairs have been reported and are included for comparison with values presented here (FIG. 15).
The variable base-pair position was installed opposite the novel Hz/Bi and Bi/Hz pairs, designed to target T•A and A•T respectively.
Footprinting Experiments.—Plasmids pDHN1 and pDEH10 were constructed and 5′-radiolabeled as previously described. (Nguyen, D. H. et al., Bioorg. Med. Chem., 9: 7-17, 2001; Melander, C. et al., Chem. Eur. J., 24: 4487-4497, 2000.) DNase I footprint titrations were performed according to standard protocols. (Trauger, J. W. et al., Methods Enzymol., 340: 450-466, 2001.)

specificity of match site versus A•T and T•A sites ([1]; G•C match vs A•T and T•A sites): similar | preference for match site 5′-TGTGTA-3′ versus the C•G site ([1]; G•C match vs C•G site): slight decrease | higher affinity than related all five-membered ring oligomer ([1]; site 5′-TGTGTA-3′): 5 fold | equilibrium association constant Ka ([1]; site 5′-TGTGTA-3′ (G•C), pH 7.0, 22° C., equilibration 12 h): 1.2e+10 M⁻¹
SMILES: CNC(=O)c1cc(NC(=O)c2cc(NC(=O)c3cc(NC(=O)c4cc(NC(=O)[C@H](N)CCNC(=O)c5cc(NC(=O)c6ccc7nc(-c8cc(NC(=O)c9nccn9C)cn8C)[nH]c7n6)cn5C)cn4C)cn3C)cn2C)cn1C [A]

binding site preference, affinity and specificity compared with related all five-membered ring oligomer ([1]; B vs Q, C vs P): same binding site preference
SMILES: CNC(=O)c1cc(NC(=O)c2cc(NC(=O)c3cc(NC(=O)c4cc(NC(=O)[C@H](N)CCNC(=O)c5cc(NC(=O)c6ccc7nc(-c8cc(NC(=O)c9nccn9C)cn8C)[nH]c7c6)cn5C)cn4C)cn3C)cn2C)cn1C [C]

match site Ka, R•S position ([2]; 5′-TGRACA-3′ match site, pH 7.0, 22° C., 12 h): 4.9e+10 M⁻¹ | match site affinity compared with related all five-membered oligomer, R•S position ([2]; D vs R, F vs V): comparable | single base pair mismatch specificities compared with related oligomer, R•S position ([2]; D vs R, F vs V): lower by roughly one order of magnitude | binding affinities and specificities compared with related oligomers R, V, X•Y position [3]: same order of magnitude
SMILES: CNC(=O)c1cc(NC(=O)c2ccc3nc(-c4cc(NC(=O)c5nc(NC(=O)[C@H](N)CCNC(=O)c6cc(NC(=O)c7cc(NC(=O)c8nc(NC(=O)c9nccn9C)cn8C)cn7C)cn6C)cn5C)cn4C)[nH]c3c2)cn1C [D]

match site Ka, R•S position ([4]; 5′-TGRCAA-3′ match site, pH 7.0, 22° C., 12 h): 3.1e+10 M⁻¹ | match site affinity compared with related all five-membered oligomer, R•S position ([4]; E vs S): six to seven-fold higher | match site/mismatch site discrimination compared with related oligomer, R•S position ([4]; R=A): comparable | match site/mismatch site discrimination compared with related oligomer, R•S position ([4]; R=T or C): at least ten-fold lower | match site Ka, X•Y position ([5]; 5′-TGGXAA-3′ match site, pH 7.0, 22° C., 12 h): 1.9e+10 M⁻¹ | match site affinity compared with related oligomer S, X•Y position ([5]; E vs S): six-fold higher | single base pair mismatch specificities compared with related oligomer S, X•Y position ([5]; E vs S): mildly diminished
SMILES: CNC(=O)c1cc(NC(=O)c2ccc3nc(-c4nc(NC(=O)c5cc(NC(=O)[C@H](N)CCNC(=O)c6cc(NC(=O)c7cc(NC(=O)c8nc(NC(=O)c9nccn9C)cn8C)cn7C)cn6C)cn5C)cn4C)[nH]c3c2)cn1C [E]

selectivity for A,T over G,C [6]: more than 50 fold | preference for T•A over A•T [6]: 10 fold
SMILES: CN(C)CCCNC(=O)CCNC(=O)c1cc(NC(=O)c2cc(NC(=O)c3cc(NC(=O)c4nc(NC(=O)CCCNC(=O)c5cc(NC(=O)c6ccc7nc(-c8nc(NC(=O)c9nccn9C)cn8C)[nH]c7c6O)cn5C)cn4C)cn3C)cn2C)cn1C [G]

selectivity for A,T over G,C [6]: 13 fold | preference for T•A over A•T [6]: 2.5 fold
SMILES: CN(C)CCCNC(=O)CCNC(=O)c1cc(NC(=O)c2cc(NC(=O)c3ccc4nc(-c5nc(NC(=O)CCCNC(=O)c6cc(NC(=O)c7ccc8nc(-c9nc(NC(=O)c%10nccn%10C)cn9C)[nH]c8c7O)cn6C)cn5C)[nH]c4c3)cn2C)cn1C [I]

selectivity for A,T over G,C [6]: more than 30 fold | preference for A•T over T•A [6]: more than 4 fold
SMILES: CN(C)CCCNC(=O)CCNC(=O)c1cc(NC(=O)c2cc(NC(=O)c3ccc4nc(-c5nc(NC(=O)CCCNC(=O)c6cc(NC(=O)c7cc(NC(=O)c8nc(NC(=O)c9nccn9C)cn8C)cn7C)cn6C)cn5C)[nH]c4c3O)cn2C)cn1C [J]

selectivity for A,T over G,C [6]: 4.5 fold | Ka (affinity) ([6]; 5′-TGGXCA-3′, 22° C., pH 7.0): high affinity | preference for A•T over T•A [6]: 2.5 fold
SMILES: CN(C)CCCNC(=O)CCNC(=O)c1cc(NC(=O)c2cc(NC(=O)c3ccc4nc(-c5nc(NC(=O)CCCNC(=O)c6cc(NC(=O)c7ccc8nc(-c9nc(NC(=O)c%10nccn%10C)cn9C)[nH]c8c7)cn6C)cn5C)[nH]c4c3O)cn2C)cn1C [L]
